Laboratory results as given in patent publication EP2508171B1, “Pharmaceutical magnetic nano-particle composition” (Universitätsklinikum Erlangen, priority 2011, dated 2012).
Where two headings read alike, the source gives them in different places.

Experiment: Biodistribution and biodegradation after i.v. application (HPLC of MTO, SQUID/MRX of iron oxide)
Format: in vivo, New Zealand White Rabbits
Settings: for concentration at 24 h: New Zealand White, rabbit, iv, regular systemic dose of pure MTO (10 mg MTO/m2 body surface), n=6, HPLC
Description: For the animal experiments New Zealand White Rabbits were used. The animals, weighing about 4.5 - 5.2 kg, were treated (i.v.) with ferrofluid bound MTO containing a drug amount of 10% compared to the regular systemic dose which requires 10 mg MTO/m2 body surface (n=5). The other study group (n=6) received the regular systemic dose of pure MTO. After 24h hours the animals were sacrificed and the organs harvested. Complete organs of liver and kidneys were processed and MTO was extracted for HPLC-analysis. Tissue homogenates have also been measured by SQUID.

O=C1c2c(O)ccc(O)c2C(=O)c2c(NCCNCCO)ccc(NCCNCCO)c21 [pure MTO, mitoxantron]
concentration at 24 h (kidney, read-out: MTO concentration in kidneys): 8500 ng/g | concentration at 24 h (liver, read-out: MTO concentration in liver tissue): 190 ng/g | MTO enrichment in kidneys relative to liver (pure i.v. injection of MTO, regular systemic dose, 24h): 44 fold
